Test results taken from patent US20250136579A1, “SALTS AND FREE BASES OF BIFUNCTIONAL COMPOUND AND POLYMORPH FORMS THEREOF” (NURIX THERAPEUTICS, INC., priority 2023, published 2025).
Several values for one entry are separate records, joined by “and”; a condition that tells them apart may be missing. Equal values may be shown once. Entries after “also recorded” stand apart in the source; their conditions may differ. Where a name gives a salt, the structure may show the parent alone.

Assays:
Type in all cases: physicochemical
[1] = stressing at 40° C./75% relative humidity (stability study, XRPD); conditions: for physical stability to stressing at 40° C./75% relative humidity (RH): 7 days
[2] = heat stress on a TGA, recovered material analyzed by XRPD; conditions: held ~1 minute; for Post-XRPD (150° C.): heated on TGA to 150° C.; for Post-XRPD (100° C.): heated on TGA to 100° C.
Method: Samples of each form were heat stressed on a TGA. Samples were heated to the specified temperature and held at that temperature for approximately 1 minute. The material was then recovered from the TGA and analyzed by XRPD.

[3] = storage under ambient conditions (15° C. to 30° C.), form conversion; conditions: temperature of from 15° C. to 30° C.
Method: For Free Base Form E, Free Base Form F, Free Base Form G, Free Base Form H, and Free Base Form J: two different instruments were used for characterizing the materials by XRPD. Samples were analysed dry with a Malvern Panalytical Xpert Pro diffractometer, except for Free Base Form F. Free Base Form F was analysed using a Malvern Panalytical Empyrean diffractometer.
Napsylate Salt Form C was analysed by XRPD.

[4] = estimated solubility by adding test solvent in aliquots to weighed solid, visual inspection
Method: Solubilities of the compound of Formula (I), free base, in a few solvents were estimated. The experiments were carried out by adding the test solvent in aliquots to weighed portions of solid. Whether dissolution had occurred was judged by visual inspection after addition of each solvent aliquot. Solubility numbers were calculated by dividing the weight of the sample by total amount of solvent used to dissolve the sample. The actual solubilities may be greater than the numbers calculated because of the use of solvent aliquots that were too large or because of slow dissolution rates. […] The solubility number is expressed as “greater than or equal to” if dissolution occurred on addition of the first solvent aliquot.
Solubilities of Fumarate Salt Form A are shown in Tables 8 and 9, in selected solvents and aqueous binary mixtures.
Solubilities of the compound of Formula (I), Fumarate Salt Form A, are shown in Tables 15 and 16, in selected solvents and aqueous binary mixtures.

[5] = water solubility, visual solubility estimation using pipet method; conditions: thermodynamic from solid
[6] = dynamic vapor sorption (DVS) analysis, TA Instruments Q5000, 5 to 95% RH
Method: For Fumarate Salt Form A, Dynamic vapor sorption (DVS) analysis was carried out using a TA Instruments Q5000 Dynamic Vapor Sorption analyser. The instrument was calibrated with standard weights and a sodium bromide standard for humidity. Approximately 10-25 mg of sample was loaded into a metal coated quartz pan for analysis. The sample was analysed at 25° C. with a maximum equilibration time of one hour in 10% relative humidity (RH) steps from 5 to 95% RH (adsorption cycle) and from 95 to 5% RH (desorption cycle). The movement from one step to the next occurred either after satisfying the equilibrium criterion of 0.01% weight change, or when the equilibrium criterion was not met after one hour. The percent weight change values were then calculated.

[7] = initial physical stability evaluation at various relative humidity, room temperature, ~1 week (XRPD, Karl Fischer)
Method: In another one or more examples, Karl Fischer titrations (water content analysis) for fumarate salt(s) (e.g., Fumarate Salt Form A) were carried out using a Mettler-Toledo C20 Coulometric KF titrator. The instrument was calibrated using a Hydranal water standard containing 1% water. The titrant was a Hydranal methanol solution.
For initial physical stability evaluation, Fumarate Salt Form A was stored at various relative humidity conditions and room temperature for approximately 1 week (Table 14). Subsamples of Fumarate Salt Form A (approximately 90 mg) were weighed and placed inside relative humidity (RH) jars; after 1 week the samples were analyzed by XRPD and Karl Fisher analysis; the results are summarized in Table 14.

[8] = slurry of crystalline Fumarate Salt Form A in solvents, XRPD
Description: Regarding the use of crystalline Fumarate Salt Form A in polymorph screens, crystalline Fumarate Salt Form A as a starting material was mixed with different solvents under various conditions in attempts to generate polymorphs.

CN1CCN([C@@H]2CCCN(c3cnc(C(N)=O)c(Nc4ccc(C5CCN(CC6CCN(c7ccc(C(=O)N[C@H]8CCC(=O)NC8=O)nc7)CC6)CC5)cc4)n3)C2)C1=O [Free Base Form E]
physical stability to stressing at 40° C./75% relative humidity (RH) [1]: physically stable

CN1CCN([C@@H]2CCCN(c3cnc(C(N)=O)c(Nc4ccc(C5CCN(CC6CCN(c7ccc(C(=O)N[C@H]8CCC(=O)NC8=O)nc7)CC6)CC5)cc4)n3)C2)C1=O [Free Base Form G]
physical stability to stressing at 40° C./75% relative humidity (RH) [1]: not physically stable

CN1CCN([C@@H]2CCCN(c3cnc(C(N)=O)c(Nc4ccc(C5CCN(CC6CCN(c7ccc(C(=O)N[C@H]8CCC(=O)NC8=O)nc7)CC6)CC5)cc4)n3)C2)C1=O [Free Base Form B]
Post-XRPD (150° C.) ([2]; listed as B): Free Base Form A

CN1CCN([C@@H]2CCCN(c3cnc(C(N)=O)c(Nc4ccc(C5CCN(CC6CCN(c7ccc(C(=O)N[C@H]8CCC(=O)NC8=O)nc7)CC6)CC5)cc4)n3)C2)C1=O [Free Base Form C]
Post-XRPD (150° C.) ([2]; listed as C): Free Base Form C

CN1CCN([C@@H]2CCCN(c3cnc(C(N)=O)c(Nc4ccc(C5CCN(CC6CCN(c7ccc(C(=O)N[C@H]8CCC(=O)NC8=O)nc7)CC6)CC5)cc4)n3)C2)C1=O [Free Base Form A]
Post-XRPD (100° C.) ([2]; listed as A): Free Base Form A

CN1CCN([C@@H]2CCCN(c3cnc(C(N)=O)c(Nc4ccc(C5CCN(CC6CCN(c7ccc(C(=O)N[C@H]8CCC(=O)NC8=O)nc7)CC6)CC5)cc4)n3)C2)C1=O [Napsylate Salt Form B]
physical stability to ambient conditions [3]: conversion to Napsylate Salt Form C

CN1CCN([C@@H]2CCCN(c3cnc(C(N)=O)c(Nc4ccc(C5CCN(CC6CCN(c7ccc(C(=O)N[C@H]8CCC(=O)NC8=O)nc7)CC6)CC5)cc4)n3)C2)C1=O [Free Base Form H]
physical stability to stressing at 40° C./75% relative humidity (RH) [1]: physically stable

CN1CCN([C@@H]2CCCN(c3cnc(C(N)=O)c(Nc4ccc(C5CCN(CC6CCN(c7ccc(C(=O)N[C@H]8CCC(=O)NC8=O)nc7)CC6)CC5)cc4)n3)C2)C1=O [Free Base Form F]
physical stability to stressing at 40° C./75% relative humidity (RH) [1]: not physically stable
physical stability to ambient conditions [3]: converted on drying at ambient conditions (including a temperature of from 15 °C to 30° C.) to Free Base Form J; also recorded: not physically stable

CN1CCN([C@@H]2CCCN(c3cnc(C(N)=O)c(Nc4ccc(C5CCN(CC6CCN(c7ccc(C(=O)N[C@H]8CCC(=O)NC8=O)nc7)CC6)CC5)cc4)n3)C2)C1=O [Free Base Form J]
physical stability to stressing at 40° C./75% relative humidity (RH) [1]: physically stable

CN1CCN([C@@H]2CCCN(c3cnc(C(N)=O)c(Nc4ccc(C5CCN(CC6CCN(c7ccc(C(=O)N[C@H]8CCC(=O)NC8=O)nc7)CC6)CC5)cc4)n3)C2)C1=O [Free Base Form D]
Post-XRPD (100° C.) ([2]; listed as D): Free Base Form D

CN1CCN([C@@H]2CCCN(c3cnc(C(N)=O)c(Nc4ccc(C5CCN(CC6CCN(c7ccc(C(=O)N[C@H]8CCC(=O)NC8=O)nc7)CC6)CC5)cc4)n3)C2)C1=O [Succinate Salt Form B]
form after stressing at 40° C./75% relative humidity (RH) ([1]; 1 week (FIG. 72)): converted back to Succinate Salt Form A

CN1CCN([C@@H]2CCCN(c3cnc(C(N)=O)c(Nc4ccc(C5CCN(CC6CCN(c7ccc(C(=O)N[C@H]8CCC(=O)NC8=O)nc7)CC6)CC5)cc4)n3)C2)C1=O.O=C(O)/C=C/C(=O)O [Fumarate Salt Form A]
solubility ([4]; acetonitrile/H2O (45/55), aw 0.9, solubility without temperature): >10000 µg/mL
solubility ([4]; aqueous with cosolvent or surfactant or cyclodextrin, thermodynamic from solid, 1,4-dioxane/H2O (60/40), aw 1.0, solubility without temperature, read-out: Solubility): 10000 µg/mL
solubility ([4]; aqueous with cosolvent or surfactant or cyclodextrin, thermodynamic from solid, 1,4-dioxane/H2O (95/5), aw 0.4, solubility without temperature, read-out: Solubility): 1000 µg/mL
solubility ([4]; aqueous with cosolvent or surfactant or cyclodextrin, thermodynamic from solid, 2-propanol/H2O (80/20), aw 0.9, at 45° C., read-out: Solubility): > 1000 µg/mL
solubility ([4]; aqueous with cosolvent or surfactant or cyclodextrin, thermodynamic from solid, 2-propanol/H2O (80/20), aw 0.9, solubility without temperature, read-out: Solubility): < 1000 µg/mL
solubility ([4]; aqueous with cosolvent or surfactant or cyclodextrin, thermodynamic from solid, acetone/H2O (70/30), aw 0.85, solubility without temperature, read-out: Solubility): 6000 µg/mL
solubility ([4]; aqueous with cosolvent or surfactant or cyclodextrin, thermodynamic from solid, acetonitrile/H2O (45/55), aw 0.9, solubility without temperature, read-out: Solubility): > 10000 µg/mL
solubility ([4]; aqueous with cosolvent or surfactant or cyclodextrin, thermodynamic from solid, ethanol/H2O (70/30), aw 0.8, solubility without temperature, read-out: Solubility): 4000 µg/mL
solubility ([4]; aqueous with cosolvent or surfactant or cyclodextrin, thermodynamic from solid, methanol/H2O (50/50), aw 0.75, solubility without temperature, read-out: Solubility): 2000 µg/mL
solubility ([4]; aqueous with cosolvent or surfactant or cyclodextrin, thermodynamic from solid, tetrahydrofuran/H2O (80/20), aw 1, solubility without temperature, read-out: Solubility): > 9000 µg/mL
solubility ([4]; organic solvent or mixture, thermodynamic from solid, 1,4-dioxane, at 60° C., read-out: Solubility): 1000 µg/mL
solubility ([4]; organic solvent or mixture, thermodynamic from solid, acetone, at 60° C., read-out: Solubility): < 1000 µg/mL
solubility ([4]; organic solvent or mixture, thermodynamic from solid, acetonitrile (ACN), at 60° C., read-out: Solubility): < 1000 µg/mL
solubility ([4]; organic solvent or mixture, thermodynamic from solid, dichloromethane (DCM), at 60° C., read-out: Solubility): < 1000 µg/mL
solubility ([4]; organic solvent or mixture, thermodynamic from solid, dimethylformamide (DMF), at RT, read-out: Solubility): > 50000 µg/mL
solubility ([4]; organic solvent or mixture, thermodynamic from solid, ethanol (EtOH), at 60° C., read-out: Solubility): < 1000 µg/mL
solubility ([4]; organic solvent or mixture, thermodynamic from solid, ethyl formate, at 60° C., read-out: Solubility): < 1000 µg/mL
solubility ([4]; organic solvent or mixture, thermodynamic from solid, methanol (MeOH), at RT, read-out: Solubility): 1000 µg/mL
solubility ([4]; organic solvent or mixture, thermodynamic from solid, methyl ethyl ketone (MEK), at 60° C., read-out: Solubility): < 1000 µg/mL
solubility ([4]; organic solvent or mixture, thermodynamic from solid, tetrahydrofuran (THF), at 60° C., read-out: Solubility): < 1000 µg/mL
solubility in aqueous solvents with high water activities (qualitative) ([4]; polymorph screening by salt formation in situ): soluble
solubility ([4]; thermodynamic from solid, water, at 60° C., read-out: Solubility): < 1000 µg/mL
solubility [5]: < 300 µg/mL
DVS: water uptake in the range 40-75% RH [6]: approximately 0.5%
DVS: weight gain up to 95% RH ([6]; 25° C.): approximately 4%
DVS: hygroscopicity ([6]; 25° C., 5 to 95% RH): Moderately hygroscopic
Post-DVS XRPD ([6]; material after sorption/desorption cycle): Unchanged; also recorded: consistent with Fumarate Salt Form A exhibiting some peak shifting at higher angles; also recorded: Form A, high angle peak shifting
DVS: water absorbed over each of the RH ranges 5 to 35%; 35 to 85%; 85 to 95% RH ([6]; one third of the total uptake per range): Approximately 1%
DVS: loss from 95 to 5% RH ([6]; ~800-mg scale lot): 3% loss from 95 to 5% RH
DVS: loss upon drying at 5% RH ([6]; ~800-mg scale lot): 0% loss upon drying at 5% RH
KF-Oven % Water, Av ([7]; RT, 20% RH): 1.23%
KF-Oven % Water, single determinations ([7]; RT, 20% RH): 1.22% and 1.24%
KF-Oven water ([7]; RT, 20% RH): 0.7 mol/mol
XRPD Result ([7]; RT, 20% RH): Form A
KF-Oven % Water, Av ([7]; RT, 39% RH): 1.59%
KF-Oven % Water, single determinations ([7]; RT, 39% RH): 1.67% and 1.50%
KF-Oven water ([7]; RT, 39% RH): 0.9 mol/mol
XRPD Result ([7]; RT, 39% RH): Form A
KF-Oven % Water, Av ([7]; RT, 58% RH): 1.58%
KF-Oven % Water, single determinations ([7]; RT, 58% RH): 1.53% and 1.63%
KF-Oven water ([7]; RT, 58% RH): 0.9 mol/mol
XRPD Result ([7]; RT, 58% RH): Form A
KF-Oven % Water, Av ([7]; RT, 75% RH): 1.73%
KF-Oven % Water, single determinations ([7]; RT, 75% RH): 1.82% and 1.63%
KF-Oven water ([7]; RT, 75% RH): 0.9 mol/mol
XRPD Result ([7]; RT, 75% RH): Form A
KF-Oven % Water, Av ([7]; RT, 97% RH): 3.86%
KF-Oven % Water, single determinations ([7]; RT, 97% RH): 3.77% and 3.94%
KF-Oven water ([7]; RT, 97% RH): ~2.1 mol/mol
XRPD Result ([7]; RT, 97% RH): Form A
KF-Oven % Water, Av ([7]; RT, ~0% RH): 1.08%
KF-Oven % Water, single determinations ([7]; RT, ~0% RH): 1.14% and 1.01%
KF-Oven water ([7]; RT, ~0% RH): 0.6 mol/mol
KF-Oven water (moles) ([7]; RT, ~0% RH): approximately 0.6 moles
XRPD Result ([7]; RT, ~0% RH): Form A
water content in the relative humidity range 40-75% RH (Karl Fisher) ([7]; room temperature): approximately 0.9 moles
changes by XRPD after storage at various relative humidity conditions ([7]; room temperature, 0 to 97% RH): no changes were observed
stability upon slurry in aqueous binary mixtures with high water activities (XRPD) ([8]; 50° C. for 1 week): appeared to be stable
result of slurries in non-aqueous and some low water activity solvents (XRPD) ([8]; e.g., dioxane/water 95:5, aw 0.4): disordered/low crystalline materials
